US20240206469A1, “PHOSPHORUS USE EFFICIENCY ENHANCERS AS PLANT GROWTH PROMOTORS” (EUROCHEM ANTWERPEN, priority 2021, published 2024)

Legend:
[1] = system: SPX1 phosphate starvation biomarker; test: Chemical activity assessment with Arabidopsis pSPX1::GUS reporter line (GUS stained area); assay type: in vivo, Arabidopsis thaliana; settings: low phosphate, 50 μM, 7 days after germination; compare with low phosphate controls of same plate (Table 5 c3)
Protocol: (§1) All Arabidopsis plant experiments were performed using the Arabidopsis thaliana Columbia-0 background. The Arabidopsis pSPX1::GUS line is described in the Plant Journal 2008, 54: 965-975. For rice, the cultivar Nipponbare was used. For maize, the cultivars DKC 2931 and B104 were used for regular pot experiments and sand-based pot experiments, respectively. For soybean, the cultivar Primus was used. […] The medium was solidified due to the addition of 0.6% Gelrite, unless stated otherwise. In case of vertical plates (root length and root hair measurements), the medium was supplied with 0.5% of sucrose and 1 μM (low phosphate, 1 μM KH2PO4, 9.9 mM KCl), 10 μM (low phosphate 10 μM KH2PO4, 9.9 mM KCl) or 1.25 mM KH2PO4 (high phosphate). Arabidopsis seeds were stratified for 2 days at 4° C. before germination. Seedlings were germinated in climate-controlled growth chambers at 22° C. under continuous light (100 μmol m^−2 s^−1). Husked rice seeds were germinated on wetted Whatman paper for 2 days at 37° C. and then transferred to Sterivent boxes or square Petri dishes with solid medium. Maize and soybean seeds were wetted 24 hours at room temperature prior to sowing in pots.
For the chemical activity assessment 3 to 8 seeds per well of Arabidopsis pSPX1::GUS line were sown in 96-well plates containing 150 μl of low phosphate modMS liquid medium containing 1% of sucrose. Compounds were added in 50 μM concentration, starting from a 5 mM stock of compounds solved in DMSO. Different chemical substances were separately added to different wells. Per plate, 16 control wells were used, 8 containing only the low phosphate medium and 1% DMSO, and 8 containing high phosphate medium and 1% DMSO. 7 days after germination, plates were scanned using a flatbed scanner (EPSON Expression 11000XL) and analyzed for leaf size. After scanning, the growth medium was replaced by GUS staining solution (see Plant Mol. Biol. Rep. 1994, 12: 37-42 for details) and incubated for 1.5 hours at 37° C. The plates were scanned a second time and analyzed for GUS signal area. Measurements of both leaf area and GUS signal area were conducted by filtering out and measure the green and blue signal, respectively using ImageJ software. If the green leaf area was 50% or less than the control, samples were omitted. Additionally, all results were visually screened for leaf size and GUS signal.

Maize = Maize growth experiment in pots with mixture of unfertilized potting soil and sand (leaf 5); assay type: in vivo
Protocol: For a subset of compounds, we performed a more extensive analysis on their root hair inducing effect in a dose-response experiment (Table 3). This confirms that the more simple structures 8.14 and 8.14.6 still retain the activity of compound 8. […] To validate this, we performed a maize growth experiment using compound 8 and the, based on the increase of total root hair length, stronger variant 8.14.6. The experiment was conducted in pots with a mixture of unfertilized potting soil and sand, and leaf 5 was measured after 29 days (Table 4).

Arabidopsis root hairs = test: Root hair number and length quantification; assay type: in vivo, Arabidopsis thaliana; settings: Arabidopsis thaliana, read-out: Total root hair length per root (in % compared to the control)
Protocol: as §1
Roots were imaged using a stereomicroscope or a VHX-6000. Number and length of the root hairs parallel to the medium surface was determined at 4 to 6 mm above the root meristem. Root hair length was measured using the ImageJ software.

| SMILES | GUS (SPX1) stained area normalized to the number of seeds [1] [pixels] | activity at 0.6 µM (Arabidopsis root hairs) [%] | activity at 1.25 µM (Arabidopsis root hairs) [%] | further results |
| --- | --- | --- | --- | --- |
| CN(Cc1ccc(Br)s1)C(=O)CN1C(=O)CCOc2ccccc21 [Compound 8.14.2] | 39 | – | – | – |
| COc1ccc(C)cc1NCC(N)=O [Compound 8.14.6] | 2 | 231 | 592 | Growth-promoting effect on maize versus compound 8 (Maize; leaf 5 after 29 days): even a stronger growth-promoting effect; Leaf 5 (Maize; maize, pots with unfertilized potting soil and sand, after 29 days, control 38.1): 41.8 cm |
| Cc1ccc2c(c1)OC(C)CN2CC(N)=O (centres unmarked) [Compound 8.14] | 2 | 231 | 343 | activity at 2.5 µM (Arabidopsis root hairs; 2.5 μM): 493%; activity at 5 µM (Arabidopsis root hairs; 5 μM): 803% |
| O=C(CN1CC(C(=O)N2CCCCC2)Oc2ccccc21)N1CC=C(c2ccccc2)CC1 (centres unmarked) [Compound 8.14.1] | 22 | – | – | – |
| CC(C)(C)c1csc(NC(=O)CN2C(=O)COc3ccccc32)n1 [Compound 8.14.4] | 46 | – | – | – |
| COc1ccc([N+](=O)[O-])cc1NCC(=O)N1CCCC1c1cccs1 (centres unmarked) [Compound 8.14.5] | 93 | – | – | – |
